For twelve compounds, GI50 and TGI results are on record in PubChem BioAssay (NCI).

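Protocol summary: plate cells (96-well), add compound at 5 concentrations, incubate 48 h, interpolate endpoints linearly. GI50 = concentration required for 50% inhibition of growth. TGI marks complete inhibition of growth.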 Some results are limits rather than exact numbers.

Assay in all cases: NCI tumour cell line growth inhibition, 48 h
Experiment [1] deals with EKVX NSCLC.
Experiment [2] deals with HT29 colon.
In experiment [3] the test system is M14 melanoma.
In experiment [4] the test system is OVCAR-8 ovarian.
The subject of experiment [5] is SF-268 CNS.
The test system of experiment [6] is SF-295 CNS.
Experiment [7] deals with SK-MEL-2 melanoma.
The subject of experiment [8] is TK-10 renal.
Experiment [9] has as its system HCC-2998 colon.
For experiment [10], the system named is NCI/ADR-RES ovarian.

For `COc1cccc(OC(=O)c2ccccc2Nc2ccnc(C(F)(F)F)c2)c1`, the GI50 in experiment [1] was 6.62 µM; in [2], 3.68 µM; in experiment [3], 1.36 µM; in experiment [4], 3.63 µM; in experiment [5], 4.65 µM; in experiment [6], 2.51 µM. The GI50 in experiment [7] was 34.4 µM; in [8], 11.2 µM. In addition, the TGI in experiment [1] was over 100 µM; in experiment [2], over 100 µM; in [3], 4.04 µM; in experiment [4], 29.3 µM; in experiment [5] it was 26.7 µM; in experiment [6] it was over 100 µM. Moreover, the figures for the TGI in experiment [7] and in [8] were over 100 µM and 37 µM, respectively.
Turning to `CC(=O)[O][Pb]([O]C(C)=O)([c]1ccccc1)[c]1ccccc1`, the GI50 in [1] was over 35 µM; in [9] it was 44.9 µM; in [2], 14.5 µM; in experiment [3], over 48 µM; in [4] it was 7.15 µM; in [5], 3.29 µM. Besides, the figures for the GI50 in experiment [6], in experiment [7] and in experiment [8] were 46.6 µM, 1.73 µM and over 53.1 µM, respectively. Also, the TGI in [1] was over 100 µM; in [9] it was over 100 µM; in experiment [2], over 100 µM; in experiment [3], over 100 µM; in [4], over 100 µM; in experiment [5], 16.6 µM. The TGI is over 100 µM in experiment [6], 3.75 µM in experiment [7] and over 100 µM in [8].
As to `CN(C)c1ccc2c(NCCCCCCNc3ccnc4cc(N(C)C)ccc34)ccnc2c1`, the TGI in experiment [1] is over 100 µM; in [9], 70.7 µM; in experiment [2], over 100 µM; in [3] it was over 100 µM; in [4] it was 20.5 µM; in experiment [5], over 100 µM. Also, the TGI worked out at 40.3 µM in experiment [6], 82.5 µM in experiment [7] and 32.2 µM in experiment [8].
Consider `CC12CCC(=O)C(O1)C1C(=O)c3cc4ccccc4cc3C(=O)C12` (configuration not stated), for which the GI50 was 23.4 µM in experiment [1]; 21 µM in [2]; 21.5 µM in experiment [3]; 21.3 µM in experiment [10]; 22.1 µM in experiment [4]; 16.1 µM in experiment [5]. Further, the GI50 is 46.4 µM in [7] and 16.6 µM in experiment [8]. In addition, the TGI came out at 72.2 µM in [1]; 51.1 µM in [2]; 53.3 µM in [3]; 57.2 µM in experiment [10]; 54.9 µM in experiment [4]; 53 µM in experiment [5]. Besides, the TGI in experiment [7] is over 100 µM; in [8], 33.6 µM.
As to `C=C1C(=O)O[C@H]2C[C@@H](C)[C@@H]3CC(=O)OC[C@@]3(C)CC12` (some centres not stated), the TGI in experiment [1] was over 100 µM; in experiment [9], 98.5 µM; in experiment [2] it was 50.1 µM; in experiment [3] it was 31.6 µM; in experiment [4], 48.3 µM; in [5] it was over 100 µM. The TGI is 76.2 µM in experiment [6], over 100 µM in [7] and 55.2 µM in [8].
Regarding `CC(=O)/C(=C\c1ccco1)C(=O)Nc1ccccc1`, the TGI in [1], in experiment [9], in [2], in experiment [3], in [4] and in experiment [5] was over 100 µM in each case. Besides, the TGI in experiment [6], in experiment [7] and in [8] was over 100 µM throughout.
As for `COC12C=CC(CC1)c1c(O)ccc(O)c12` (configuration not stated), the TGI in experiment [1] is over 100 µM; in [9], over 100 µM; in experiment [2], over 100 µM; in experiment [3] it was over 100 µM; in experiment [4], over 70.1 µM; in experiment [5] it was over 31.6 µM. For the same compound, the figures for the TGI in experiment [6], in experiment [7] and in experiment [8] were over 100 µM, over 76.3 µM and over 67.1 µM, respectively.
As to `Cc1ccc2[nH]c(C(=O)NN3C(=O)CSC34CCCCC4C)c(-c3ccccc3)c2c1` (configuration not stated), the GI50 is 17 µM in experiment [1]; 16.4 µM in [9]; 14.4 µM in experiment [2]; 19.5 µM in experiment [3]; 17.2 µM in experiment [4]; 17.2 µM in experiment [5]. Besides, the GI50 is 16 µM in experiment [6], 20.9 µM in experiment [7] and 17.5 µM in [8]. Besides, the TGI was 33.8 µM in experiment [1]; 31.6 µM in [9]; 36.9 µM in experiment [2]; 37.7 µM in experiment [3]; 35.6 µM in experiment [4]; 37.4 µM in experiment [5]. Moreover, the TGI in experiment [6] came to 31.9 µM; in [7], 38.7 µM; in [8], 33.8 µM.
For the compound `CC1CC2C(=O)NC(=O)C2c2[nH]c3ccccc3c21` (configuration not stated), the TGI in [1], in [2], in [3], in experiment [4], in experiment [5] and in experiment [6] was over 100 µM each time. This compound came in with a TGI in [7] of over 100 µM.
For the compound `O=C1C/C(=C/c2ccc(/C=C3/CC(=O)N(c4cccc(Br)c4)C3=O)cc2)C(=O)N1c1cccc(Br)c1`, the TGI in [1], in [9], in experiment [2], in experiment [3], in experiment [4] and in [5] was over 100 µM throughout. Besides, the TGI in experiment [6], in experiment [7] and in [8] was over 100 µM in each case.
On to `COC(=O)[C@@H]1CSC(=S)N1C(=O)C[C@H]1CC=CC[C@H]1CC(=O)Sc1ccccc1`, for which the TGI was determined as 32.2 µM in experiment [1]; 33.4 µM in experiment [9]; 37.4 µM in experiment [2]; 32.4 µM in experiment [3]; 50.6 µM in experiment [4]; 35.1 µM in [5]. Besides, the results for the TGI in [6] and in experiment [7] were 45.3 µM and 52 µM, respectively.
Consider `O=C(CCn1[nH]c(=O)c(Cl)c(Cl)c1=O)NOCCCc1ccccc1`, for which the TGI in experiment [1], in [9], in [2], in experiment [3], in experiment [4] and in [5] was over 100 µM each time. In addition, the TGI in [6], in [7] and in experiment [8] was over 100 µM each time.
